We go through 20 compounds from PubChem BioAssay AID248 (DTP/NCI, 2004).

Toxic doses and inconclusive results are not listed.

This assay concerns L1210 leukemia ip in BDF1 mice, survival T/C. Description: NCI In Vivo Anticancer Drug Screen. Data for tumor model L1210 Leukemia (intraperitoneal) in B6D2F1 (BDF1) mice. Particulars: endpoint: mean survival time, higher = longer survival. The essentials:
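Transplantable tumor model; survival measured in treated vs vehicle control mice. Value = treated/control.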

Setting [1] is: dose: 100.0 mg/kg/injection, schedule: Q04DX003 (ip), vehicle: Klucel (hydroxypropylcellulose) (HPC).
Where [2] appears, read: dose: 200.0 mg/kg/injection, schedule: Q04DX003 (ip), vehicle: Klucel (hydroxypropylcellulose) (HPC).
Setting [3] is: dose: 400.0 mg/kg/injection, schedule: Q04DX003 (ip), vehicle: Klucel (hydroxypropylcellulose) (HPC).
[4] abbreviates: dose: 100.0 mg/kg/injection, schedule: Q01DX009 (ip), vehicle: saline with Tween-80.
Setting [5] is: dose: 200.0 mg/kg/injection, schedule: Q01DX009 (ip), vehicle: saline with Tween-80.
The mark [6] stands for this setting: dose: 400.0 mg/kg/injection, schedule: Q01DX009 (ip), vehicle: saline with Tween-80.
[7] abbreviates: dose: 100.0 mg/kg/injection, schedule: Q04DX003 (ip), vehicle: saline with Tween-80.
The mark [8] stands for this setting: dose: 200.0 mg/kg/injection, schedule: Q04DX003 (ip), vehicle: saline with Tween-80.
The mark [9] stands for this setting: dose: 400.0 mg/kg/injection, schedule: Q04DX003 (ip), vehicle: saline with Tween-80.
[10] abbreviates: dose: 50.0 mg/kg/injection, schedule: Q01DX001 (ip), vehicle: carboxymethylcellulose (CMC).
Setting [11] is: dose: 100.0 mg/kg/injection, schedule: Q01DX001 (ip), vehicle: carboxymethylcellulose (CMC).
The mark [12] stands for this setting: dose: 200.0 mg/kg/injection, schedule: Q01DX001 (ip), vehicle: carboxymethylcellulose (CMC).
[13] abbreviates: dose: 200.0 mg/kg/injection, schedule: Q01DX001 (ip), vehicle: saline.

`CCOC(=O)S(=O)(=O)c1ccc(C)cc1`: the T/C (dose: 100.0 mg/kg/injection, schedule: Q04DX003 (ip), vehicle: acetone) is 106 % of control; the T/C (dose: 200.0 mg/kg/injection, schedule: Q04DX003 (ip), vehicle: acetone) was 96 % of control; the T/C (dose: 400.0 mg/kg/injection, schedule: Q04DX003 (ip), vehicle: acetone) was 101 % of control.

On to `Cc1ccc(OCCOc2ccc(N)cc2)cc1`, for which the T/C runs as follows: (dose: 100.0 mg/kg/injection, schedule: Q04DX003 (ip), vehicle: alcohol) 92 % of control; (dose: 200.0 mg/kg/injection, schedule: Q04DX003 (ip), vehicle: alcohol) 95 % of control; (dose: 400.0 mg/kg/injection, schedule: Q04DX003 (ip), vehicle: alcohol) 90 % of control.

For the compound `O=C(NCCCl)C(Cl)(Cl)Cl`, the T/C by setting is: under setting [1], 98 % of control; under setting [2], 97 % of control; under setting [3], 106 % of control.

Turning to `O=C(N/N=C/c1ccccc1O)c1cc2ccccc2cc1O`, the T/C is, setting by setting: under setting [4], 91 % of control; under setting [5], 86 % of control; under setting [6], 90 % of control.

For `CCOC(=O)c1csc(CNC(=O)c2ccccc2)n1`, the T/C is, setting by setting: (dose: 100.0 mg/kg/injection, schedule: Q01DX001 (ip), vehicle: saline with Tween-80) 107 % of control; under setting [4], 100 % of control; under setting [7], 97 % of control; (dose: 200.0 mg/kg/injection, schedule: Q01DX001 (ip), vehicle: saline with Tween-80) 98 % of control; under setting [5], 97 % of control; under setting [8], 95 % of control. Besides, the T/C reads like this: (dose: 400.0 mg/kg/injection, schedule: Q01DX001 (ip), vehicle: saline with Tween-80) 104 % of control; under setting [6], 103 % of control; under setting [9], 93 % of control.

As to `CC(=O)c1ccc(CC(C)C)cc1`, the T/C is 90 % of control (dose: 150.0 mg/kg/injection, schedule: Q01DX009 (ip), vehicle: Klucel (hydroxypropylcellulose) (HPC)) and 94 % of control (dose: 300.0 mg/kg/injection, schedule: Q01DX009 (ip), vehicle: Klucel (hydroxypropylcellulose) (HPC)).

Take `CCOC(C[N+](C)(C)C)OCC`: the T/C runs as follows: (dose: 50.0 mg/kg/injection, schedule: Q04DX003 (ip), vehicle: saline) 93 % of control; (dose: 100.0 mg/kg/injection, schedule: Q04DX003 (ip), vehicle: saline) 97 % of control; (dose: 200.0 mg/kg/injection, schedule: Q04DX003 (ip), vehicle: saline) 101 % of control.

`CCOC(=O)C(C)[P+](c1ccccc1)(c1ccccc1)c1ccccc1` (configuration not stated): the T/C runs as follows: (dose: 1.5 mg/kg/injection, schedule: Q01DX009 (ip), vehicle: saline) 108 % of control; (dose: 1.5 mg/kg/injection, schedule: Q04DX003 (ip), vehicle: saline) 98 % of control; (dose: 3.0 mg/kg/injection, schedule: Q01DX009 (ip), vehicle: saline) 106 % of control; (dose: 3.0 mg/kg/injection, schedule: Q04DX003 (ip), vehicle: saline) 108 % of control; (dose: 6.0 mg/kg/injection, schedule: Q04DX003 (ip), vehicle: saline) 123 % of control.

Turning to `C[Si](C)(CCl)CCCO[Si](C)(C)CCl`, the T/C is, setting by setting: under setting [10], 102 % of control; under setting [11], 108 % of control; under setting [12], 96 % of control; (dose: 400.0 mg/kg/injection, schedule: Q01DX001 (ip), vehicle: carboxymethylcellulose (CMC)) 98 % of control.

In the case of `CCOC(=O)/C(Cc1cnc2ccccc2n1)=N\O`, the T/C is 94 % of control under setting [4]; 105 % of control under setting [7]; 96 % of control under setting [5]; 100 % of control under setting [8]; 100 % of control under setting [6]; 105 % of control under setting [9].

In the case of `CC(=O)n1cc(C2CC(=O)OC3=C2CC(=O)C(C)(C)C3)c2ccccc21` (configuration not stated), the T/C was 100 % of control under setting [4]; 95 % of control under setting [7]; 96 % of control under setting [5]; 101 % of control under setting [8]; 91 % of control under setting [6]; 101 % of control under setting [9].

As for `OC(CF)CF`, the T/C (dose: 25.0 mg/kg/injection, schedule: Q01DX009 (ip), vehicle: saline) was 115 % of control and the T/C (dose: 100.0 mg/kg/injection, schedule: Q01DX009 (ip), vehicle: saline) was 103 % of control.

Regarding `O=C(NC(c1ccccc1)c1ccccc1)c1ccccc1`, the T/C runs as follows: (dose: 25.0 mg/kg/injection, schedule: Q01DX009 (ip), vehicle: saline with Tween-80) 88 % of control; (dose: 25.0 mg/kg/injection, schedule: Q04DX003 (ip), vehicle: saline with Tween-80) 97 % of control; (dose: 50.0 mg/kg/injection, schedule: Q01DX001 (ip), vehicle: saline) 97 % of control; (dose: 50.0 mg/kg/injection, schedule: Q01DX009 (ip), vehicle: saline with Tween-80) 88 % of control; (dose: 50.0 mg/kg/injection, schedule: Q04DX003 (ip), vehicle: saline with Tween-80) 94 % of control; (dose: 100.0 mg/kg/injection, schedule: Q01DX001 (ip), vehicle: saline) 91 % of control. Besides, the T/C was 88 % of control under setting [4] and 89 % of control under setting [7].

With `CC(=O)Nc1ccc(/C=C(\C#N)c2cccc3ccccc23)cc1`, the T/C is 90 % of control (dose: 100.0 mg/kg/injection, schedule: Q01DX009 (ip), vehicle: Klucel (hydroxypropylcellulose) (HPC)); 87 % of control (dose: 200.0 mg/kg/injection, schedule: Q01DX009 (ip), vehicle: Klucel (hydroxypropylcellulose) (HPC)); 88 % of control (dose: 400.0 mg/kg/injection, schedule: Q01DX009 (ip), vehicle: Klucel (hydroxypropylcellulose) (HPC)).

Regarding `SC1(S)CN2CCC1CC2`, the T/C runs as follows: (dose: 6.25 mg/kg/injection, schedule: Q01DX009 (ip), vehicle: saline) 96 % of control; (dose: 6.25 mg/kg/injection, schedule: Q04DX003 (ip), vehicle: saline) 105 % of control; (dose: 12.5 mg/kg/injection, schedule: Q01DX009 (ip), vehicle: saline) 94 % of control; (dose: 12.5 mg/kg/injection, schedule: Q04DX003 (ip), vehicle: saline) 91 % of control; (dose: 25.0 mg/kg/injection, schedule: Q04DX003 (ip), vehicle: saline) 93 % of control.

For `CCC(=O)Nc1cccc(OC(C)=O)c1`, the T/C was 91 % of control under setting [4], 90 % of control under setting [5] and 107 % of control under setting [6].

On to `O=C(O)c1ccccc1C(=O)Nc1ccc(F)cc1`, for which the T/C by setting is: under setting [1], 103 % of control; under setting [13], 106 % of control; under setting [2], 87 % of control; (dose: 400.0 mg/kg/injection, schedule: Q01DX001 (ip), vehicle: saline) 96 % of control; under setting [3], 94 % of control.

Take `Nn1cnc2c(SCc3ccccc3)ncnc21`: the T/C by setting is: under setting [10], 101 % of control; (dose: 62.0 mg/kg/injection, schedule: Q01DX015 (ip), vehicle: carboxymethylcellulose (CMC)) 115 % of control; (dose: 93.0 mg/kg/injection, schedule: Q01DX015 (ip), vehicle: carboxymethylcellulose (CMC)) 121 % of control; under setting [11], 101 % of control; (dose: 140.0 mg/kg/injection, schedule: Q01DX015 (ip), vehicle: carboxymethylcellulose (CMC)) 158 % of control; under setting [12], 122 % of control.

Regarding `COc1cc(-c2c3c(cc4c2OCO4)CC(O)C(C(=O)O)C3)cc(OC)c1OC` (configuration not stated), the T/C was 95 % of control (dose: 75.0 mg/kg/injection, schedule: Q01DX001 (ip), vehicle: saline); 116 % of control (dose: 150.0 mg/kg/injection, schedule: Q01DX001 (ip), vehicle: saline); 109 % of control (dose: 200.0 mg/kg/injection, schedule: Q01DX001 (ip), vehicle: Klucel (hydroxypropylcellulose) (HPC)); 114 % of control under setting [13]; 116 % of control (dose: 300.0 mg/kg/injection, schedule: Q01DX001 (ip), vehicle: Klucel (hydroxypropylcellulose) (HPC)).

Regarding `O=C1OCC(O)(c2ccccc2)C1c1ccccc1` (configuration not stated), the T/C was 98 % of control (dose: 55.0 mg/kg/injection, schedule: Q01DX Z (ip), vehicle: methylcellulose (MC)); 118 % of control (dose: 83.0 mg/kg/injection, schedule: Q01DX Z (ip), vehicle: methylcellulose (MC)); 104 % of control (dose: 125.0 mg/kg/injection, schedule: Q01DX Z (ip), vehicle: methylcellulose (MC)).
